Read-outs that look alike come from different tables or passages of the source.
Tests used:
[1] = tested on: H3K27me3 mark in HeLa cells; assay: H3K27me3 MSD Hela Assay; assay type: cell-based; conditions: read-out: H3K27me3_MSD_HeLa_ (EC50)
Description: Trypsinized HeLa cells were counted and diluted in 10% DMEM (Life Technologies, Cat. #10569) to 5000 cells/75 μL. Seventy-five […] of cells were place in each well of a 96-well flat-bottomed plate and incubated at 37° C. for 4 hours. Twenty-five μL of test compound (at various concentrations) was added to the cells and incubation continued at 37° C. for 96 hours. Media was then removed and the cells rinsed once with ice cold PBS. Forty μL of ice-cold MSD Buffer AT (10 mM HEPES, pH 7.9, 5 mM MgCl2, 0.25M sucrose, Benzonase (1:10000), 1% Triton X-100 supplemented with fresh 1× Protease Inhibitor cocktail and 1 mM 4-(2-Aminoethyl)benzenesulfonyl fluoride hydrochloride (AEBSF)) was added to each well and the plates placed on ice for 30 minutes. Ten μL of 5M NaCl was then added to each well and incubation on ice continued for another 15 minutes. The material in each well was suspended pipetting up and down and then transferred to a new 96 well plate. The emptied wells were rinsed with 150 uL ice-cold 20 mM Tris pH 7.5, 1 mM EDTA, 1 mM EGTA, supplemented with fresh 1× Protease Inhibitor cocktail and 1 mM AEBSF (“NO salt NO detergent buffer) and transferred to the respective wells in the new plate. Three hundred μL of NO Salt NO detergent buffer was then added to each well of lysates and the plates frozen at −80° C.
On the same day, an appropriate number of MSD standard bind 96-well plates were coated with 30 μL/well of total H3 capture antibody (Millipore. Cat #MAB3422) at 1 μg/mL concentration in PBS. The antibody solution was evenly distributed first by tapping gently on the sides of the plates and then by shaking the plates for a few minutes at 1000 rpm. Antibody coated plates were stored at 4° C. overnight.
The next day the lysates are thawed to RT. The antibody coated MSD plates are washed 3× with TBS-T (Tris-buffered saline (Fisher Scientific, Cat #BP2471-1)+0.2% Tween-20). One-hundred fifty μL of 5% Blocker A in TBS-T is added to each well. The wells are covered and shaken on a shaker at RT for one hour. The Blocker A step is repeated a second time. After removing the blocker, 25 μL of cell lysate is transferred into each antibody coated well. The plates are shaken for 2 hours at RT, the lysate removed and the plates again washed with Blocker A in TBS-T. Twenty-five μL of appropriate freshly prepared antibody mix (including both primary and secondary antibodies) is added to each well and the plates shaken for 1 hour at RT.
Both H3 antibodies were obtained from Cell Signalling (Cat #s 4499 and 9733). The goat anti-rabbit antibody was obtained from Meso-Scale Discovery (Cat #R32AB-1).
The antibody mix was then removed and the wells washed with Blocker A. One hundred-fifty μL of freshly prepared 1×MSD Read Buffer (Meso-Scale Discovery; Cat #R927C-2) was then added to each well and the plates read on a MSD Sector 2400 Plate Reader.
Data was analyzed using Assay Assistant (Constellation Pharmaceuticals In-house product) and Activity Base (IDBS Ltd, Surrey, UK) template. Data files were imported to Assay Assistant and assay conditions were specified. A unique Analysis ID was created and the data files exported to Activity Base. An analysis template was created on Activity Base to measure dose-dependent inhibition of H3K27me3 mark and cell viability respectively. Readout of DMSO wells were used to normalize the data. Resulting curves were fitted using Activity base software Model 205 (IDBS Ltd. Surrey, UK). The data was checked for quality, validated and integrated in excel format using SARview (IDBS Ltd, Surrey, UK).

[2] = molecular target: EZH2 (rPRC2) (Homo sapiens, UniProt Q15910); assay: EZH2 assay: rPRC2, biotinylated oligonucleosomes, 3H SAM methyl transfer (FlashPlate scintillation); assay type: biochemical; conditions: biotinylated oligonucleosome substrate
Chain of EZH2 (rPRC2) (Q15910 whole entry): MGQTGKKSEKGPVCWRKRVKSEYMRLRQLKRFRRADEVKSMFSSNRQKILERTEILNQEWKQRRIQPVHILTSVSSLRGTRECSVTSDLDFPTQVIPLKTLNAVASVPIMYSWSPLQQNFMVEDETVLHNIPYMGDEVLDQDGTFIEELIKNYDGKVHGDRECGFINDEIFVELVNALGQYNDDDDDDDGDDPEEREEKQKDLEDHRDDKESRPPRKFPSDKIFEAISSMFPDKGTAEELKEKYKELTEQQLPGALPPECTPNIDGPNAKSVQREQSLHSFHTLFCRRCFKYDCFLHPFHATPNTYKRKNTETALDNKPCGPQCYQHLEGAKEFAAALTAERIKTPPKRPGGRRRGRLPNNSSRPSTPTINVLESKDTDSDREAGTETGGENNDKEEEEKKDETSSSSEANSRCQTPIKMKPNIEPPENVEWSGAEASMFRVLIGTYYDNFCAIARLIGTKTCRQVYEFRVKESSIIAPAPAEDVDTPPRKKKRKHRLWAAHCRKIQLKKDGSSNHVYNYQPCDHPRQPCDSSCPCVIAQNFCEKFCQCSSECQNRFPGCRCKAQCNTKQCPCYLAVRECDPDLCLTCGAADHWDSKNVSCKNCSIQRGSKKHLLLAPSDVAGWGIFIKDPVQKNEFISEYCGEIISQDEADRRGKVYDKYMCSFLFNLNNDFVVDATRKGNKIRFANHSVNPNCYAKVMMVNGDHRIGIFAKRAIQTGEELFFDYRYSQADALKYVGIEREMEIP
Chain of EZH2 (rPRC2) (O75530 whole entry partner): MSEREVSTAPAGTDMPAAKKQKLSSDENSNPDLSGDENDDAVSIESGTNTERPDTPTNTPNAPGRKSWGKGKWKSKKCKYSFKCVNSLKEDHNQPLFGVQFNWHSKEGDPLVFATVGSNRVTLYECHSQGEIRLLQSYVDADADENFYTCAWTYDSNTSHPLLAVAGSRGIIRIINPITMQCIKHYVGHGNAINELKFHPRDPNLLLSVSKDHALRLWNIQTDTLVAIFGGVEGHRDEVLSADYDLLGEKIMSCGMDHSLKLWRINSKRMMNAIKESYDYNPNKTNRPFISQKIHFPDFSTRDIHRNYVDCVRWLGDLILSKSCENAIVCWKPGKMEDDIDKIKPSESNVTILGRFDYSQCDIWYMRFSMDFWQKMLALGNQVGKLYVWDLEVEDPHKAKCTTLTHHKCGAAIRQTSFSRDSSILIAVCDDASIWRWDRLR
Chain of EZH2 (rPRC2) (Q15022 whole entry partner): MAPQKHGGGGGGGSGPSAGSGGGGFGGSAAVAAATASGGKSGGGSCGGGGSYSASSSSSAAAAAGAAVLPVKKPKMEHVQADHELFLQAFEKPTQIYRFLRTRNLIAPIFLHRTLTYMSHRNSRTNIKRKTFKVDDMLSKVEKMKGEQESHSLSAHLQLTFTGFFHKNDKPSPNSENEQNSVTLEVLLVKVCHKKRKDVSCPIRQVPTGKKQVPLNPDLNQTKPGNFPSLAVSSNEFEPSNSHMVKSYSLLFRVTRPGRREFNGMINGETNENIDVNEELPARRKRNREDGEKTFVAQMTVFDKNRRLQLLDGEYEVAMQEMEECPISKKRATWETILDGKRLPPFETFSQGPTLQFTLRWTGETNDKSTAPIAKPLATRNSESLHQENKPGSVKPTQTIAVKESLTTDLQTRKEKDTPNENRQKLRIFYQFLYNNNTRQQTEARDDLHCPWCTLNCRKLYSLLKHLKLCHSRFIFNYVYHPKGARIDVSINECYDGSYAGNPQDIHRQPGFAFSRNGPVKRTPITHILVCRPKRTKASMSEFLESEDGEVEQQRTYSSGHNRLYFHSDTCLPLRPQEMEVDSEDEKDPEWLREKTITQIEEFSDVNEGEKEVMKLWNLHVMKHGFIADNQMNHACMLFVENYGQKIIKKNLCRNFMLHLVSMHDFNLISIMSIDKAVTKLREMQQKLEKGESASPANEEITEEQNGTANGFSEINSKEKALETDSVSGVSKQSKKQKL

[3] = molecular target: Y641N EZH2 (Homo sapiens, UniProt Q15910, Y641N); assay: Y641N EZH2 assay: as EZH2 assay, with reconstituted H3K27Me2 oligonucleosomes as substrate; assay type: biochemical
Chain of Y641N EZH2 (Q15910 whole entry Y641N): as the sequence (Q15910 whole entry) above, with Y641N counted along it
Chain of Y641N EZH2 (O75530 whole entry partner): as the sequence (O75530 whole entry partner) above
Chain of Y641N EZH2 (Q15022 whole entry partner): as the sequence (Q15022 whole entry partner) above

[4] = wild-type EZH2 (rPRC2), read-out: EZH2 IC50
[5] = Y641N mutant EZH2, H3K27Me2 oligonucleosome substrate, read-out: Y641N EZH2 IC50
[6] = EZH2 IC50, wild-type EZH2 (rPRC2)
[7] = Y641N EZH2 IC50, Y641N mutant EZH2, H3K27Me2 oligonucleosome substrate

| Compound | IC50 [2, 6] [nM] | IC50 [3, 7] [nM] | also measured |
| --- | --- | --- | --- |
| Cc1cc(C)c(CNC(=O)c2c(C)n(C(C)c3ccccc3)c3ccccc23)c(O)n1 (single isomer, unassigned) [Compound 137, (R or S)—N-((2-hydroxy-4,6-dimethylpyridin-3-yl)methyl) 2-methyl-1-1-phenylethyl) 1H-indole-3-carboxamide] |  |  | EC50 ([1]; HeLa cells, MSD, 96 hours): 400 to 2000 nM |
| CCC(C)n1c(C)c(C(=O)NCc2c(C)cc(C)nc2O)c2ccccc21 (single isomer, unassigned) [Compound 147, (R or S)-1-sec-butyl-N-((2-hydroxy-4,6-dimethylpyridin-3-yl)methyl)-2-methyl-1H-indole-3-carboxamide] |  |  | EC50 ([1]; Homo sapiens, HeLa, 96 h): 400 to 2000 nM |
| COCC(C)n1c(C)c(C(=O)NCc2c(C)cc(C)[nH]c2=O)c2ccccc21 (single isomer, unassigned; peak 2) [Compound 218, (R or S)-N-((4,6-dimethyl-2-oxo-1,2-dihydropyridin-3-yl)methyl)-1-(1-methoxypropan-2-yl)-2-methyl-1H-indole-3-carboxamide-PEAK 2] |  |  | EC50 ([1]; Homo sapiens, HeLa, 96 h): < 400 nM |
| COc1cc(C)[nH]c(=O)c1CNC(=O)c1c(C)n(C(C)C(OC)c2ccccc2)c2ncccc12 (stereo not shown) [Compound 265, 1-(1-methoxy-1-phenylpropan-2-yl)-N-((4-methoxy-6-methyl-2-oxo-1,2-dihydropyridin-3-yl)methyl)-2-methyl-1H-pyrrolo[2,3-b]pyridine-3-carboxamide] |  |  | IC50 [2, 4]: < 100 nM; IC50 [3, 5]: 100 to 1000 nM |
| Cc1cc(C)c(CNC(=O)c2c(C)n(C(C)C(C)(C)O)c3ncccc23)c(=O)[nH]1 (stereo not shown) [Compound 271, N-((4,6-dimethyl-2-oxo-1,2-dihydropyridin-3-yl)methyl)-1-(3-hydroxy-3-methylbutan-2-yl)-2-methyl-1H-pyrrolo[2,3-b]pyridine-3-carboxamide] | 1000 to 10000 | 1000 to 10000 |  |
| COc1cc(C)[nH]c(=O)c1CNC(=O)c1c(C)n([C@@H](C)c2ccccc2)c2ncccc12 [Compound 276, (S)-N-((4-methoxy-6-methyl-2-oxo-1,2-dihydropyridin-3-yl)methyl)-2-methyl-1-(1-phenylethyl)-1H-pyrrolo[2,3-b]pyridine-3-carboxamide] | < 100 | < 100 |  |
| COC[C@H](C)n1c(C)c(C(=O)NCc2c(OC)cc(C)[nH]c2=O)c2cncnc21 [Compound 287, (S)-N-((4-methoxy-6-methyl-2-oxo-1,2-dihydropyridin-3-yl)methyl)-7-(1-methoxypropan-2-yl)-6-methyl-7H-pyrrolo[2,3-d]pyrimidine-5-carboxamide] | 100 to 1000 | 1000 to 10000 |  |
| CCC(OC)C(C)n1c(C)c(C(=O)NCc2c(OC)cc(C)[nH]c2=O)c2cccnc21 (stereo not shown) [Compound 293, N-((4-methoxy-6-methyl-2-oxo-1,2-dihydropyridin-3-yl)methyl)-1-(3-methoxypentan-2-yl)-2-methyl-1H-pyrrolo [2,3-b] pyridine-3-carboxamide] | < 100 | 100 to 1000 |  |
| COc1cc(C)[nH]c(=O)c1CNC(=O)c1c(C)n(C(C)CC(N)=O)c2ncccc12 (stereo not shown) [Compound 296, 1-(4-amino-4-oxobutan-2-yl)-N-((4-methoxy-6-methyl-2-oxo-1,2-dihydropyridin-3-yl)methyl)-2-methyl-1H-pyrrolo[2,3-b]pyridine-3-carboxamide] |  |  | IC50 [2, 4]: 100 to 1000 nM; IC50 [3, 5]: 1000 to 10000 nM |
| CCC(OC)C(C)n1c(C)c(C(=O)NCc2c(OC)cc(C)[nH]c2=O)c2ccccc21 (stereo not shown) [Compound 299, N-((4-methoxy-6-methyl-2-oxo-1,2-dihydropyridin-3-yl)methyl)-1-(3-methoxypentan-2-yl)-2-methyl-1H-indole-3-carboxamide] | < 100 | < 100 |  |
| COc1cc(C)[nH]c(=O)c1CNC(=O)c1c(C)n(C(C)C(OC)C(F)(F)F)c2ncccc12 (stereo not shown) [Compound 312, N-((4-methoxy-6-methyl-2-oxo-1,2-dihydropyridin-3-yl)methyl)-2-methyl-1-(4,4,4-trifluoro-3-methoxybutan-2-yl)-1H-pyrrolo [2,3-b] pyridine-3-carboxamide] | 100 to 1000 | 100 to 1000 |  |
| COC(C)C(C)n1c(C)c(C(=O)NCc2c(C)cc(C)[nH]c2=O)c2ccc(S(C)(=O)=O)cc21 (stereo not shown) [Compound 322, N-((4,6-dimethyl-2-oxo-1,2-dihydropyridin-3-yl)methyl)-1-(3-methoxybutan-2-yl)-2-methyl-6-(methylsulfonyl)-1H-indole-3-carboxamide] | 100 to 1000 | 100 to 1000 |  |
| COc1cc(C)[nH]c(=O)c1CNC(=O)c1c(C)n(C(C)C(C)OC)c2cc(S(C)(=O)=O)ccc12 (stereo not shown) [Compound 323, N-((4-methoxy-6-methyl-2-oxo-1,2-dihydropyridin-3-yl)methyl)-1-(3-methoxybutan-2-yl)-2-methyl-6-(methylsulfonyl)-1H-indole-3-carboxamide] | < 100 | 100 to 1000 |  |
| COc1cc(C)[nH]c(=O)c1CNC(=O)c1c(C)n(C(=O)CC(C)C)c2ccccc12 [Compound 329, N-((4-methoxy-6-methyl-2-oxo-1,2-dihydropyridin-3-yl)methyl)-2-methyl-1-(3-methylbutanoyl)-1H-indole-3-carboxamide] |  |  | IC50 [2, 4]: 100 to 1000 nM; IC50 [3, 5]: 100 to 1000 nM |
| COc1cc(C)[nH]c(=O)c1CNC(=O)c1c(C)n(C2CCN(C(=O)OC(C)(C)C)CC2)c2ccccc12 [Compound 331, tert-butyl 4-(3-(((4-methoxy-6-methyl-2-oxo-1,2-dihydropyridin-3-yl)methyl)carbamoyl)-2-methyl-1H-indol-1-yl)piperidine-1-carboxylate] | < 100 | 100 to 1000 |  |
| COc1cc(C)[nH]c(=O)c1CNC(=O)c1c(C)n(C(C)C2COCCO2)c2ccccc12 (stereo not shown) [Compound 348, 1-(1-(1,4-dioxan-2-yl)ethyl)-N-((4-methoxy-6-methyl-2-oxo-1,2-dihydropyridin-3-yl)methyl)-2-methyl-1H-indole-3-carboxamide] | < 100 | < 100 |  |
| COc1cc(C)[nH]c(=O)c1CNC(=O)c1c(C)n(C(C)C(C)S(C)(=O)=O)c2ccccc12 (stereo not shown) [Compound 350, N-((4-methoxy-6-methyl-2-oxo-1,2-dihydropyridin-3-yl)methyl)-2-methyl-1-(3-(methylsulfonyl)butan-2-yl)-1H-indole-3-carboxamide] | < 100 | < 100 |  |
| COc1cc(C)[nH]c(=O)c1CNC(=O)c1c(C)n(C(C)[C@H]2CNCCO2)c2ncncc12 (stereo partly drawn) [Compound 351, N-((4-methoxy-6-methyl-2-oxo-1,2-dihydropyridin-3-yl)methyl)-6-methyl-7-(1-((R)-morpholin-2-yl)ethyl)-7H-pyrrolo[2,3-d]pyrimidine-5-carboxamide] | < 100 | 100 to 1000 |  |
| COc1cc(C)[nH]c(=O)c1CNC(=O)c1c(C)n(C(=O)C2CCOCC2)c2ccccc12 [Compound 372, N-((4-methoxy-6-methyl-2-oxo-1,2-dihydropyridin-3-yl)methyl)-2-methyl-1-(tetrahydro-2H-pyran-4-carbonyl)-1H-indole-3-carboxamide] |  |  | IC50 [2, 4]: 100 to 1000 nM; Y641N EZH2 IC50 ([3]; Y641N mutant EZH2, H3K27Me2 oligonucleosome substrate): *(0.5 uM) |
| (±)-N-((6-(hydroxymethyl)-4-methoxy-2-oxo-1,2-dihydropyridin-3-yl)methyl)-1-(1-methoxypropan-2-yl)-2-methyl-1H-pyrrolo[2,3-b]pyridine-3-carboxamide [Compound 262] |  |  | IC50 [2, 4]: 100 to 1000 nM; IC50 [3, 5]: 1000 to 10000 nM |

Source: patent publication US9371331B2, “Modulators of methyl modifying enzymes, compositions and uses thereof” (Constellation Pharmaceuticals, Inc., priority 2012, dated 2016)
